Measured values taken from ChEMBL document CHEMBL4028802, “DILIrank: the largest reference drug list ranked by the risk for developing drug-induced liver injury in humans” (Drug Discov Today, 2016).

Key:
[1] = species: Homo sapiens; test: Liver toxicity in human assessed as induction of drug-induced liver injury by measuring verified drug-induced liver injury concern status
[2] = species: Homo sapiens; test: Liver toxicity in human assessed as induction of drug-induced liver injury by measuring severity class index
Throughout, for DILI severity class: key of the grades not given here.

SMILES	DILI_Concern [1]	DILI_severity_class [2]
COc1cccc2c1C(=O)c1c(O)c3c(c(O)c1C2=O)C[C@@](O)(C(=O)CO)C[C@@H]3O[C@H]1C[C@H](N)[C@H](O)[C@H](C)O1 [DOXORUBICIN]	Less-Dili-Concern	3
CC(C)c1cccc(C(C)C)c1OCOP(=O)(O)O [FOSPROPOFOL]	Less-Dili-Concern	0
CC(CCc1ccccc1)NCC(O)c1ccc(O)c(C(N)=O)c1 (centres undefined) [LABETALOL]	Most-Dili-Concern	8
CN[C@@H](C)[C@H](O)c1ccccc1 [EPHEDRINE]	No-Dili-Concern	0
CCN(C)C(=O)Oc1cccc([C@H](C)N(C)C)c1 [RIVASTIGMINE]	Less-Dili-Concern	3
N[C@@H]1[C@H]2CN(c3nc4c(cc3F)c(=O)c(C(=O)O)cn4-c3ccc(F)cc3F)C[C@@H]12 [TROVAFLOXACIN]	Most-Dili-Concern	8
CO[C@H]1C[C@@H]2CC[C@@H](C)[C@@](O)(O2)C(=O)C(=O)N2CCCC[C@H]2C(=O)O[C@H]([C@H](C)C[C@@H]2CC[C@@H](OC(=O)C(C)(CO)CO)[C@H](OC)C2)CC(=O)[C@H](C)/C=C(\C)[C@@H](O)[C@@H](OC)C(=O)[C@H](C)C[C@H](C)/C=C/C=C/C=C/1C [TEMSIROLIMUS]	No-Dili-Concern	0
CCn1cc(C(=O)O)c(=O)c2cc(F)c(N3CCNCC3)cc21 [NORFLOXACIN]	Less-Dili-Concern	3
CN/C(=N/CCSCc1nc[nH]c1C)NC#N [CIMETIDINE]	Less-Dili-Concern	2
CCCN(CCC)S(=O)(=O)c1ccc(C(=O)O)cc1 [PROBENECID]	Ambiguous-Dili-Concern	6
CO[C@@]1(NC(=O)C2SC(=C(C(N)=O)C(=O)O)S2)C(=O)N2C(C(=O)O)=C(CSc3nnnn3C)CS[C@@H]21 (some centres undefined) [CEFOTETAN]	Ambiguous-Dili-Concern	3
C=C1C[C@@H]2[C@H](CC[C@]3(C)C(=O)CC[C@@H]23)[C@@]2(C)C=CC(=O)C=C12 [EXEMESTANE]	Most-Dili-Concern	4
CCc1oc2ccccc2c1C(=O)c1ccc(O)cc1 [BENZARONE]	Most-Dili-Concern	8
O=[N+]([O-])O[C@H]1CO[C@H]2[C@@H]1OC[C@H]2O[N+](=O)[O-] [ISOSORBIDE DINITRATE]	No-Dili-Concern	0
CC(=O)Oc1ccccc1C(=O)O [ASPIRIN]	Less-Dili-Concern	0
O=C1c2c(O)ccc(O)c2C(=O)c2c(NCCNCCO)ccc(NCCNCCO)c21 [MITOXANTRONE]	Less-Dili-Concern	3
CN1CCC(Nc2ncc3ncnc(Nc4ccc(F)c(Cl)c4)c3n2)CC1 [FALNIDAMOL]	Most-Dili-Concern	8
CC[C@@]1(O)C(=O)OCc2c1cc1n(c2=O)Cc2cc3c(CN(C)C)c(O)ccc3nc2-1 [TOPOTECAN]	No-Dili-Concern	0
CC=CC1=C(C(=O)O)N2C(=O)[C@@H](NC(=O)[C@H](N)c3ccc(O)cc3)[C@H]2SC1 [CEFPROZIL]	Less-Dili-Concern	4
CC(C)(N)CO.Cn1c(=O)c2[nH]c(Br)nc2n(C)c1=O [PAMABROM]	No-Dili-Concern	0
CCCC(C)(COC(N)=O)COC(=O)NC(C)C (centres undefined) [CARISOPRODOL]	No-Dili-Concern	0
O=C1Nc2ccc(Cl)cc2C(c2ccccc2Cl)=NC1O (centres undefined) [LORAZEPAM]	Ambiguous-Dili-Concern	3
CN1C(CCl)Nc2cc(Cl)c(S(N)(=O)=O)cc2S1(=O)=O (centres undefined) [METHYCLOTHIAZIDE]	Ambiguous-Dili-Concern	2
CN1CCCCC1CCN1c2ccccc2Sc2ccc([S+](C)[O-])cc21 (centres undefined) [MESORIDAZINE]	Ambiguous-Dili-Concern	5
OC[C@H]1OC(O)[C@H](O)[C@@H](O)[C@@H]1O (some centres undefined) [DEXTROSE]	No-Dili-Concern	0
CC1(C)S[C@@H]2[C@H](NC(=O)C(C(=O)O)c3ccccc3)C(=O)N2[C@H]1C(=O)O (some centres undefined) [CARBENICILLIN]	Less-Dili-Concern	3

SMILES	DILI_Concern [1]	DILI_severity_class [2]
CN1c2c(nc(N)[nH]c2=O)NC[C@@H]1CNc1ccc(C(=O)N[C@@H](CCC(=O)[O-])C(=O)[O-])cc1.[Ca+2] [LEVOMEFOLATE CALCIUM]	No-Dili-Concern	0
O=c1[nH]cnc2c1ncn2[C@H]1CC[C@@H](CO)O1 [DIDANOSINE]	Most-Dili-Concern	8
CCCCCCCCCC(=O)O[C@H]1CC[C@H]2[C@@H]3CCC4=CC(=O)CC[C@@H]4[C@H]3CC[C@]12C [NANDROLONE DECANOATE]	Most-Dili-Concern	7
CC[C@H]1OC(=O)[C@H](C)[C@@H](O[C@H]2C[C@@](C)(OC)[C@@H](O)[C@H](C)O2)[C@H](C)[C@@H](O[C@@H]2O[C@H](C)C[C@H](N(C)C)[C@H]2O)[C@](C)(O)C[C@@H](C)CN(C)[C@H](C)[C@@H](O)[C@]1(C)O [AZITHROMYCIN]	Less-Dili-Concern	7
CCOc1cc(CC(=O)N[C@@H](CC(C)C)c2ccccc2N2CCCCC2)ccc1C(=O)O [REPAGLINIDE]	Less-Dili-Concern	5
CC(COc1ccccc1)N(CCCl)Cc1ccccc1 (centres undefined) [PHENOXYBENZAMINE]	No-Dili-Concern	0
O=C(O[C@H]1CN2CCC1CC2)N1CCc2ccccc2[C@@H]1c1ccccc1 [SOLIFENACIN]	Ambiguous-Dili-Concern	3
Cc1cn(-c2cc(NC(=O)c3ccc(C)c(Nc4nccc(-c5cccnc5)n4)c3)cc(C(F)(F)F)c2)cn1 [NILOTINIB]	Ambiguous-Dili-Concern	4
CC[C@@H](c1cccc(O)c1)[C@@H](C)CN(C)C [TAPENTADOL]	No-Dili-Concern	0
CCCC1O[C@@H]2C[C@H]3[C@@H]4CCC5=CC(=O)C=C[C@]5(C)[C@H]4[C@@H](O)C[C@]3(C)[C@]2(C(=O)CO)O1 (some centres undefined) [BUDESONIDE]	No-Dili-Concern	0
C[C@H]1O[C@@H](O[C@H]2[C@@H](O)C[C@H](O[C@H]3[C@@H](O)C[C@H](O[C@H]4CC[C@@]5(C)[C@H](CC[C@@H]6[C@@H]5C[C@@H](O)[C@]5(C)[C@@H](C7=CC(=O)OC7)CC[C@]65O)C4)O[C@@H]3C)O[C@@H]2C)C[C@H](O)[C@@H]1O [DIGOXIN]	No-Dili-Concern	0
Cc1cc(C#N)cc(C)c1Oc1nc(Nc2ccc(C#N)cc2)nc(N)c1Br [ETRAVIRINE]	Most-Dili-Concern	8
Cc1cccc(Nc2ccccc2C(=O)O)c1C [MEFENAMIC ACID]	Most-Dili-Concern	8
Cc1cc2c(s1)Nc1ccccc1N=C2N1CCN(C)CC1 [OLANZAPINE]	Less-Dili-Concern	3
Cc1[nH]cnc1CN1CCc2c(c3ccccc3n2C)C1=O [ALOSETRON]	Less-Dili-Concern	4
Cc1cccc(CN2CCN(C(c3ccccc3)c3ccc(Cl)cc3)CC2)c1 (centres undefined) [MECLIZINE]	No-Dili-Concern	0
CCN(CC)CCCC(C)Nc1ccnc2cc(Cl)ccc12 (centres undefined) [CHLOROQUINE]	Less-Dili-Concern	3
C[C@]12CCC(=O)C=C1CC[C@@H]1[C@@H]2CC[C@@]2(C)[C@H]1CC[C@]2(C)O [METHYLTESTOSTERONE]	Less-Dili-Concern	2
Nc1nc(NC2CC2)c2ncn([C@H]3C=C[C@@H](CO)C3)c2n1 [ABACAVIR]	Most-Dili-Concern	8
NC(=O)c1cnccn1 [PYRAZINAMIDE]	Less-Dili-Concern	3
S=P(N1CC1)(N1CC1)N1CC1 [THIOTEPA]	Less-Dili-Concern	3
COc1cc2c(cc1OC)C(=O)C(CC1CCN(Cc3ccccc3)CC1)C2 (centres undefined) [DONEPEZIL]	Less-Dili-Concern	3
CN(C)CCCC1(c2ccc(F)cc2)OCc2cc(C#N)ccc21 (centres undefined) [CITALOPRAM]	Less-Dili-Concern	7
CN(C)CC(c1ccc(O)cc1)C1(O)CCCCC1 (centres undefined) [DESVENLAFAXINE]	Less-Dili-Concern	3
CC[C@H](C)[C@H](NC(=O)[C@H](CCC(=O)O)NC(=O)[C@H](CO)NC(=O)[C@@H](NC(=O)[C@@H](N)CO)C(C)C)C(=O)N[C@@H](CCC(N)=O)C(=O)N[C@@H](CC(C)C)C(=O)N[C@@H](CCSC)C(=O)N[C@@H](Cc1cnc[nH]1)C(=O)N[C@@H](CC(N)=O)C(=O)N[C@@H](CC(C)C)C(=O)NCC(=O)N[C@@H](CCCCN)C(=O)N[C@@H](Cc1cnc[nH]1)C(=O)N[C@@H](CC(C)C)C(=O)N[C@@H](CC(N)=O)C(=O)N[C@@H](CO)C(=O)N[C@@H](CCSC)C(=O)N[C@@H](CCC(=O)O)C(=O)N[C@@H](CCCN=C(N)N)C(=O)N[C@H](C(=O)N[C@@H](CCC(=O)O)C(=O)N[C@@H](Cc1c[nH]c2ccccc12)C(=O)N[C@@H](CC(C)C)C(=O)N[C@@H](CCCN=C(N)N)C(=O)N[C@@H](CCCCN)C(=O)N[C@@H](CCCCN)C(=O)N[C@@H](CC(C)C)C(=O)N[C@@H](CCC(N)=O)C(=O)N[C@@H](CC(=O)O)C(=O)N[C@H](C(=O)N[C@@H](Cc1cnc[nH]1)C(=O)N[C@@H](CC(N)=O)C(=O)N[C@@H](Cc1ccccc1)C(=O)O)C(C)C)C(C)C [TERIPARATIDE]	No-Dili-Concern	0
NC1=NC(=O)C(c2ccccc2)O1 (centres undefined) [PEMOLINE]	Most-Dili-Concern	8
